{"source": "patent US20090156670A1", "about": "(VENUS REMEDIES LIMITED, priority 2004, published 2009)", "origin": "cited, not measured here", "key": {"[1]": {"system": "CD43", "conditions": "human neutrophils"}, "[2]": {"system": "CD31", "conditions": "human neutrophils"}, "[3]": {"conditions": "rats"}, "[4]": {"system": "CD11b", "conditions": "human neutrophils"}, "[5]": {"target": "COX-I (Homo sapiens, UniProt P23219)", "sequence (P23219 24-599)": "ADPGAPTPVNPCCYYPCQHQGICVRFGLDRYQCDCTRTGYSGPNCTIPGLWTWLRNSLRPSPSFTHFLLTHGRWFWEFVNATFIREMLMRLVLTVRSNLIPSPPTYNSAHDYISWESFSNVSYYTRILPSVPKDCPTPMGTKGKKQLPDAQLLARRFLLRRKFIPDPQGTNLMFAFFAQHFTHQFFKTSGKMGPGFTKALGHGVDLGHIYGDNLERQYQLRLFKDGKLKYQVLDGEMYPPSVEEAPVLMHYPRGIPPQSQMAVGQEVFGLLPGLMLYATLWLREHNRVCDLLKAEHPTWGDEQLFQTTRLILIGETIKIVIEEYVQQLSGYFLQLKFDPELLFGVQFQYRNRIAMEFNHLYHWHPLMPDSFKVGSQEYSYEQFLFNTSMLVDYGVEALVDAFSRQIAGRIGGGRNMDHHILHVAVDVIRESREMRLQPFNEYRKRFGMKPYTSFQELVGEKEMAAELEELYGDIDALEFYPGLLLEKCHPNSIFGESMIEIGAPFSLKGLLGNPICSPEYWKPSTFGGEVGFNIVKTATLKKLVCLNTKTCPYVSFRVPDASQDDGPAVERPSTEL", "conditions": "oral form"}, "[6]": {"system": "sodium urate-induced synovitis", "conditions": "dogs; prophylactically and therapeutically"}, "[7]": {"system": "adjuvant-induced polyarthritis", "conditions": "rats; prophylactically and therapeutically"}, "[8]": {"system": "neutrophil aggregation"}, "[9]": {"system": "interleukin1β-induced prostaglandin E2 production"}, "[10]": {"conditions": "rheumatoid arthritis patients, long-term (6 months) study"}, "[11]": {"system": "CD44", "conditions": "human neutrophils"}, "[12]": {"system": "CD11a", "conditions": "human neutrophils"}, "[13]": {"conditions": "pain elicited by chemical and mechanical stimuli"}, "[14]": {"system": "ICAM-3", "conditions": "human neutrophils"}}, "data": [{"smiles": "O=C(O)COC(=O)Cc1ccccc1Nc1c(Cl)cccc1Cl", "note": "[aceclofenac, 2-[(2,6-dichlorophenyl)amino]phenylacetoxyacetic acid]", "values": [{"measurement": "decrement of CD43 expression", "setting": "[1]", "result": "moderate"}, {"measurement": "CD31 expression", "setting": "[2]", "result": "unaffected"}, {"measurement": "fever induced by brewer's yeast injection", "setting": "[3]", "result": "markedly suppressed"}, {"measurement": "CD11b expression", "setting": "[4]", "result": "slightly increased"}, {"measurement": "COX-I inhibitor effect", "setting": "[5]", "result": "poor"}, {"measurement": "activity against sodium urate-induced synovitis", "setting": "[6]", "result": "highly active"}, {"measurement": "activity against adjuvant-induced polyarthritis", "setting": "[7]", "result": "highly active"}, {"measurement": "neutrophil aggregation induced with anti-CD43 Mab", "setting": "[8]", "result": "significantly inhibited"}, {"measurement": "interleukin1β-induced prostaglandin E2 production", "setting": "[9]", "result": "inhibits"}, {"measurement": "incidence of gastrointestinal intolerance", "setting": "[10]", "result": 13, "unit": "%"}, {"measurement": "CD44 expression", "setting": "[11]", "result": "unaffected"}, {"measurement": "CD11a expression", "setting": "[12]", "result": "unaffected"}, {"measurement": "analgesic effect compared with indometacin and diclofenac", "setting": "[13]", "result": "nearly equal to or slightly better"}, {"measurement": "decrement of ICAM-3 expression", "setting": "[14]", "result": "slight"}]}, {"smiles": "O=C(O)Cc1ccccc1Nc1c(Cl)cccc1Cl", "note": "[diclofenac]", "values": [{"measurement": "incidence of gastrointestinal intolerance", "setting": "[10]", "result": 17, "unit": "%"}]}]}
